Data reported in patent US7205302B2, “Heterocyclic compound derivatives and medicines” (Nippon Shinyaku Co., Ltd., priority 2001, dated 2007).
pIC50: −log10 of the molar value. Where a name gives a salt, the structure may show the parent alone.

Legend:
[1] = system: mice; assay: Single-dose toxicity test in mice; assay type: in vivo; details: oral, 10, 30 or 100 mg/kg
Protocol: Singl-Dose Toxicity Test in Mice
The compound of Example 42 was orally administered to mice (including three mice in a group) at a dose of 10, 30 or 100 mg/kg.

[2] = system: ADP-induced platelet aggregation in human PRP; assay: Human platelet aggregation inhibition test; assay type: cell-based; details: ADP 1×10^−5 M
Protocol: Human Platelet Aggregation Inhibition Test
Blood collected from healthy human volunteers into aqueous trisodium citrate solution was centrifuged at 200×g for 10 minutes and the upper layer was recovered to obtain platelet-rich plasma (PRP). The residual blood containing trisodium citrate added therein was centrifuged at 1500×g for 10 minutes and the supernatant was collected as platelet-poor plasma (PPP). The number of platelets in the PRP was adjusted to about 300,000/μl by PPP. Platelet aggregation was measured by an aggregometer. 180 μl of PRP was added to cuvettes and incubated at 37° C. for one minute, and then 10 μl of test compound solution (prepared by dissolving a test compound with a 1.5-fold mole of a sodium hydroxide solution and diluting with water) was added and the mixture was further incubated for 2 minutes. Then, 10 μl of aqueous adenosine diphosphate (ADP) solution was added to adjust the final concentration as 1×10^−5 M and platelet aggregation was induced and observed for 7 minutes. Inhibition percentage of aggregation was calculated from the percentage of aggregation upon the addition of the test compound to the percentage of aggregation upon the addition of water in place of the test compound solution (control).

[3] = molecular target: T1, PGI2 receptor (human platelet membrane, 3H-Iloprost binding) (Homo sapiens, UniProt P43119); assay: 3H-Iloprost binding inhibition test to human platelet membrane; details: compound 1 μM, 5 nM 3H-Iloprost, 37° C., 10 minutes
T1 construct: Human platelet membrane of 100 μg protein was suspended; from tissue; host or cells: human platelet membrane
Protocol: ^3H-Iloprost Binding Inhibition Test to Human Platelet Membrane
The platelet membrane was collected on a glass filter and its radioactivity was measured after washing four times with 50 mM Tris-HCl buffer.

T1 sequence (P43119 whole entry): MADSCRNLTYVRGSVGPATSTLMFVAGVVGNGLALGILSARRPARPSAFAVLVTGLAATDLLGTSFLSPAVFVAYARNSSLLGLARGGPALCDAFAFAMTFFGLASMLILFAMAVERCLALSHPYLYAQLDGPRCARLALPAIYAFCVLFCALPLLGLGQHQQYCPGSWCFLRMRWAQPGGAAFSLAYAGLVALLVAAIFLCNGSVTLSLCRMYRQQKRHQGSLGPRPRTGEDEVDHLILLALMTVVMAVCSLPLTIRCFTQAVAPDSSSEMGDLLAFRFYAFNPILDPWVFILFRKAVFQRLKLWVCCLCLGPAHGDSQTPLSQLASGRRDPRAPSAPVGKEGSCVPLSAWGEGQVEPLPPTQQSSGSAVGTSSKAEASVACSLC

inhibition of binding of 3H-Iloprost [3] [%]	SMILES	deaths after single oral dose [1]	pIC50 [2]	melting point [°C]
	CC(C)N(CCCCOCC(=O)O)c1cnc(-c2ccccc2)c(-c2ccccc2)n1 [Example 42, 2-{4-[N-(5,6-diphenylpyrazin-2-yl)-N-isopropylamino]butyloxy}acetic acid]	no deaths	6.70	
	Cc1ccc(-c2nnc(N(CCCCOCC(=O)O)C(C)C)nc2-c2ccc(C)cc2)cc1 [Example 48, 2-{4-[N-(5,6-di-p-tolyl-1,2,4-triazin-3-yl)-N-isopropylamino]butyloxy}acetic acid]		6.40	119 to 121
85	CN(CCCCOCC(=O)O)c1cnc(-c2ccccc2)c(-c2ccccc2)n1 [Example 64, 2-{4-[N-(5,6-diphenylpyrazin-2-yl)-N-methylamino]butyloxy}acetic acid]			
	CN(CCCCOCC(=O)O)c1c[n+]([O-])c(-c2ccccc2)c(-c2ccccc2)n1 [Example 73, 2,3-diphenyl-5-{N-[4-(carboxymethoxy)butyl]-N-methylamino}pyrazine 1-oxide]		6.70	185 to 190
	Cc1ccc(-c2cnc(N(C)CCCCOCC(=O)O)nc2-c2ccc(C)cc2)cc1 [Example 75, 2-{4-[N-(4,5-di-p-tolylpyrimidin-2-yl)-N-methylamino]butyloxy}acetic acid]		6.70	
	CC(C)N(CCCCSCC(=O)O)c1cnc(-c2ccccc2)c(-c2ccccc2)n1 [Example 78, 2-{4-[N-(5,6-diphenylpyrazin-2-yl)-N-isopropylamino]butylthio]acetic acid sodium salt]		6.52	
